Experimental data from patent US11806401B2, “Prevention of drug-induced atrio-ventricular block” (SignPath Pharma Inc., priority 2016, dated 2023).

Tests used:
guinea pigs [1] = experiment: Effect of Fingolimod, verapamil and 14:0 lyso PG on PR intervals / AV block in instrumented guinea pigs; type: in vivo, guinea pig
Experimental: PR intervals were measured following the infusion of Fingolimod. Measurements of PR were stopped when the P wave disconnected from the QRS complexes, indicating 3rd degree AV block.
Fingolimod was administered by intravenous infusion to instrumented guinea pigs at doses ranging from 3 μg/kg to 300 μg/kg (n=6, green series, above). The intravenous route of administration was selected because it simplified the pharmacokinetics of this multi-drug experiment.
Again, the intravenous route of administration for both drugs was selected to simplify the kinetics of the experiment.

[2] = Prevention of drug-induced QTc prolongation in regulatory-validated preclinical models; type: in vivo; conditions: against Moxifloxacin; Nilotinib; Crizotinib; Sotalol; Curcumin; Nifedipine; Lovastatin; Thioridazine; Amiodarone; Terfenadine; E4031; Felbamate; Gilenya; Quizartinib (AC220); Forskolin; Turmerone
guinea pigs [3] = experiment: Effect of Fingolimod, verapamil and 14:0 lyso PG on QTc interval in instrumented guinea pigs; type: in vivo, guinea pig
guinea pigs [4] = experiment: Effect of single oral doses of Moxifloxacin on QTc interval of instrumented guinea pigs, without or with 14:0 lyso PG; type: in vivo, guinea pig
[5] = test system: normal subjects and cancer patients; experiment: Phase 1a and 1b clinical studies of liposomal curcumin (14:0 lyso PG); type: in vivo, human
From the text: To date, 45 normal subjects and 28 cancer patients have been tested in Phase 1a and 1b (ongoing) studies, respectively.

[6] = test system: clinical volunteers and patients; conditions: cited from earlier work
IKr = IKr (Homo sapiens, UniProt Q12809); conditions: cited from earlier work
IKr, sequence (Q12809 whole entry): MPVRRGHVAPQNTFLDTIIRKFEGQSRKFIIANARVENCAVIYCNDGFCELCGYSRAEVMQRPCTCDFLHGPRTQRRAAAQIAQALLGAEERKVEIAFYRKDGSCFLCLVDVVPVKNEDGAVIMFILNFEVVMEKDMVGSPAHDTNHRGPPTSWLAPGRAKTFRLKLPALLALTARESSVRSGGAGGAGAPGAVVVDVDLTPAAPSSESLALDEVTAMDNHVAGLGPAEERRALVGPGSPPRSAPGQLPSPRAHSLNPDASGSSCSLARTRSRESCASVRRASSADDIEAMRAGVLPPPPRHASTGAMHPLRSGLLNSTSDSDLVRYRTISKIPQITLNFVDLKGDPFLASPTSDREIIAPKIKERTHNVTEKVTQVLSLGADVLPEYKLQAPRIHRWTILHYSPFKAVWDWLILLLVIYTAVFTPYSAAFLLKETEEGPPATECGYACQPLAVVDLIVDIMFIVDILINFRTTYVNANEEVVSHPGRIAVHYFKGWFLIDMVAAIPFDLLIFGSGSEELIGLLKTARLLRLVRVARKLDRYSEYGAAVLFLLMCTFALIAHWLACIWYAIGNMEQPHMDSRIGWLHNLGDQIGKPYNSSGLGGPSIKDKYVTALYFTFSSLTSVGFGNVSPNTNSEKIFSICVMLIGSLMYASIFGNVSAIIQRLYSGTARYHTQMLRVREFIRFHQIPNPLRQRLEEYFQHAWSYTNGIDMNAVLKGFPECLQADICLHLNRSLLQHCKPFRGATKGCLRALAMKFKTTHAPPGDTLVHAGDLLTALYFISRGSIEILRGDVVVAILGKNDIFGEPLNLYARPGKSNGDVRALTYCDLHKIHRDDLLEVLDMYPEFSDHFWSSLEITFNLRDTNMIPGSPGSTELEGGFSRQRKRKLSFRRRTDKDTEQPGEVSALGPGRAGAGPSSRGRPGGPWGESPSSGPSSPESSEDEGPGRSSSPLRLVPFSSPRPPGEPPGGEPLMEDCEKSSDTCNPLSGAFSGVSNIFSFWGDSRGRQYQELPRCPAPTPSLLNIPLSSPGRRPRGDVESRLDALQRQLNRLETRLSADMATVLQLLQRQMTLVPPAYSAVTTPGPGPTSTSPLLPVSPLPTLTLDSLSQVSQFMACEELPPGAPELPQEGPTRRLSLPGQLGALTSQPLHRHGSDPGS

[7] = 14:0 lyso PG given orally prior to Fingolimod and/or verapamil
[8] = 0.5 mg/kg verapamil i.v. 60 minutes before Fingolimod infusion
[9] = intravenous infusion of Fingolimod alone
[10] = oral 1.0 mg/kg 14:0 lyso PG, then verapamil, then Fingolimod infusion

Structure (SMILES): CCCCCCCCCCCCCC(=O)OC[C@@H](O)COP(=O)(O)OCC(O)CO (mixture of isomers) [14:0 lyso PG, 1-myristoyl-2-hydroxy-sn-glycero-3-phospho-(1′-rac-glycerol)]
- right-shift of the appearance of 3rd-degree AV block compared to Fingolimod alone (guinea pigs [1]; [7]): 13 fold
- right-shift of the appearance of 3rd-degree AV block compared to animals receiving both Fingolimod and verapamil (guinea pigs [1]; [7]): 6.6 fold
- QTc prolongation by other drugs [2]: prevents
- change in cardiac electrophysiology (guinea pigs [3]; guinea pig, in vivo, po, 1 mg/kg): no change in cardiac electrophysiology
- QTc prolongation for any given dose of Fingolimod relative to verapamil+Fingolimod animals (guinea pigs [3]; oral 1.0 mg/kg 14:0 lyso PG, then 0.5 mg/kg verapamil i.v. at 60 min, Fingolimod i.v. at 120 min): ⅓
- Maximum Tolerated Dose (MTD) (guinea pigs [3]; oral gavage formulation): greater than the highest achievable dose in the oral formulation
- changes in QTc (guinea pigs [4]; concomitant oral 14:0 lyso PG with Moxifloxacin, 14:0 lyso PG:Moxifloxacin ratio 0.45:1, n=6): no, or very little, changes in QTc
- shift in the QTc-dose response of Moxifloxacin (guinea pigs [4]; concomitant oral 14:0 lyso PG, ratio 0.45:1): statistically significant right-shift
- adverse effects ([5]; exposure levels used in the curcumin Phase 1a and Phase 1b clinical trials): devoid of adverse effects
- clinical efficacy against curcumin: QT and QTc interval prolongation ([5]; ongoing Phase 1b study, human patients): preventing QT and QTc interval prolongation
- tolerability in clinical trials ([5]; orally-administered): well-tolerated

Structure (SMILES): CCCCCCCCc1ccc(CCC(N)(CO)CO)cc1 [Fingolimod]
- AV block in human patients ([6]; Full Prescribing Information, Novartis): produce AV block from the first dose
- QT/QTc prolongation ([6]; administered alone in healthy, naive animals and clinical volunteers): limited QT/QTc prolongation
- QTc intervals ([6]; clinical patients taking verapamil along with Fingolimod): severely prolonged QTc intervals
- delays in repolarization ([6]; therapeutic doses, in a pair of individuals (EMA Assessment Report)): 60 ms
- Fingolimod dose at 1st-degree AV block (guinea pigs [1]; [8]): 0.007 mg/kg
- Fingolimod dose at 3rd-degree dissociation between P waves and QRS complexes (guinea pigs [1]; [8]): 0.045 mg/kg
- Fingolimod dose at Mobitz-Type-1 2nd degree AV block (guinea pigs [1]; [8]): 0.01 mg/kg
- Fingolimod dose at 1st degree AV block (guinea pigs [1]; [9]): 0.015 mg/kg
- Fingolimod dose at 3rd degree AV block (guinea pigs [1]; [9]): 0.023 mg/kg
- Fingolimod dose at Mobitz Type-1, 2nd-degree AV block (guinea pigs [1]; [9]): 0.02 mg/kg
- Fingolimod dose at 1st-degree AV block (guinea pigs [1]; oral 1.0 mg/kg 14:0 lyso PG, 0.5 mg/kg verapamil i.v. 60 min later, Fingolimod infusion 60 min post-verapamil): 0.2 mg/kg
- Fingolimod dose at P-QRS dissociation, in the rest of the animals in the cohort (guinea pigs [1]; [10]): 0.3 mg/kg
- Fingolimod dose at P-QRS dissociation, in the two animals with Mobitz-Type-2 AV block (guinea pigs [1]; [10]): 0.051 mg/kg
- animals with Mobitz-Type-2 AV block (guinea pigs [1]; [10]): 2 out of 6
- changes in PR intervals (guinea pigs [1]; oral 1.0 mg/kg 14:0 lyso PG, then verapamil, then Fingolimod infusion, up to a dose of 200 μg/kg): modest changes in PR intervals
- IKr inhibition (IKr): approximately 64%
